Results reported in the supplement of paper PMC10627819.

Columns and labels:
Assay in all cases: fitness (endpoint OD595 vs no drug) (fraction); higher = more growth
[1] = tested on: B. subtilis 168
How it was run: (§1)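 Fitness was defined as the optical density at the transition into stationary phase relative to the robust mean of no-drug control wells. Values were capped at 1. Cultures were started at OD595 0.01 in 384-well plates (30 µl, or 55 µl for S. pneumoniae) in TSB, LB Lennox or CY at 37 °C. OD595 was recorded every 30 min over 14 h, with the first reading subtracted as background.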

[2] = tested on: S. aureus DSM 20231
How it was run: as §1

[3] = tested on: S. aureus Newman
How it was run: as §1

[4] = tested on: S. pneumoniae D39V
How it was run: as §1

N[C@@H]1CONC1=O [Cycloserine D] + CCC[C@@H]1C[C@@H](C(=O)N[C@@H]([C@H]2O[C@H](SC)[C@H](O)[C@@H](O)[C@H]2O)[C@@H](C)O)N(C)C1 [Lincomycin]
fitness
Settings | first compound 0.125 µg/mL | first compound 0.25 µg/mL | first compound 0.375 µg/mL | first compound 0.5 µg/mL | first compound 0.75 µg/mL | first compound 1.5 µg/mL
[1], partner 0.1 µg/mL | 0.87 | 0.873 | – | 0.911 | – | –
[1], partner 0.2 µg/mL | 0.861 | 0.877 | – | 0.932 | – | –
[1], partner 0.4 µg/mL | 0.868 | 0.906 | – | 0.964 | – | –
[2], partner 0.1 µg/mL | – | – | 0.936 | – | 0.921 | 0.915
[2], partner 0.4 µg/mL | – | – | 0.278 | – | 0.271 | 0.247

fitness, [1], one replicate
Settings | first compound 0.125 µg/mL | first compound 0.25 µg/mL | first compound 0.5 µg/mL
partner 0.8 µg/mL | 0.923 | 0.939 | 0.905
partner 1.6 µg/mL | 0.88 | 0.813 | 0.862

N[C@@H]1CONC1=O [Cycloserine D] + CN(C)c1cc(NC(=O)CNC(C)(C)C)c(O)c2c1C[C@H]1C[C@H]3[C@H](N(C)C)C(O)=C(C(N)=O)C(=O)[C@@]3(O)C(O)=C1C2=O [Tigecycline]
fitness
Settings | first compound 0.125 µg/mL | first compound 0.25 µg/mL | first compound 0.375 µg/mL | first compound 0.5 µg/mL | first compound 0.75 µg/mL | first compound 1.5 µg/mL
[1], partner 0.039 µg/mL | 0.944 | 0.987 | – | ≥ 1 | – | –
[1], partner 0.078 µg/mL | 0.955 | 0.867 | – | 0.912 | – | –
[1], partner 0.156 µg/mL | 0.914 | 0.911 | – | 0.982 | – | –
[3], partner 0.039 µg/mL | – | – | 0.956 | – | 0.936 | 0.931
[3], partner 0.078 µg/mL | – | – | 0.981 | – | ≥ 1 | 0.994
[3], partner 0.156 µg/mL | – | – | 0.986 | – | 0.983 | 0.971

fitness, [1], one replicate
Settings | first compound 0.125 µg/mL | first compound 0.25 µg/mL | first compound 0.5 µg/mL
partner 0.125 µg/mL | ≥ 1 | ≥ 1 | 0.994
partner 0.25 µg/mL | ≥ 1 | 0.97 | 0.922
partner 0.5 µg/mL | 0.944 | 0.94 | ≥ 1

N[C@@H]1CONC1=O [Cycloserine D] + CN[C@@H]1[C@H](O[C@H]2[C@H](O[C@H]3[C@H](O)[C@@H](O)[C@H](N=C(N)N)[C@@H](O)[C@@H]3N=C(N)N)O[C@@H](C)[C@]2(O)C=O)O[C@@H](CO)[C@H](O)[C@H]1O [Streptomycin]
fitness
Settings | first compound 0.125 µg/mL | first compound 0.25 µg/mL | first compound 0.375 µg/mL | first compound 0.5 µg/mL | first compound 0.75 µg/mL | first compound 1.5 µg/mL
[1], partner 2 µg/mL | 0.931 | 0.937 | – | 0.982 | – | –
[1], partner 8 µg/mL | 0.0826 | 0.0554 | – | 0.074 | – | –
[3], partner 1 µg/mL | – | – | 0.984 | – | 0.985 | 0.978
[3], partner 2 µg/mL | – | – | 0.976 | – | 0.93 | 0.941

N[C@@H]1CONC1=O [Cycloserine D] + COc1cc(Cc2cnc(N)nc2N)cc(OC)c1OC [Trimethoprim]
fitness, [1], one replicate
Settings | partner 0.1 µg/mL | partner 0.2 µg/mL | partner 0.4 µg/mL | partner 1 µg/mL | partner 2 µg/mL
first compound 0.125 µg/mL | 0.917 | 0.789 | 0.584 | 0.344 | 0.268
first compound 0.25 µg/mL | 0.849 | 0.757 | 0.56 | 0.323 | 0.243
first compound 0.5 µg/mL | 0.986 | 0.818 | 0.533 | 0.358 | 0.234

fitness
Settings | partner 0.125 µg/mL | partner 0.25 µg/mL | partner 0.5 µg/mL | partner 1 µg/mL
[1], first compound 0.125 µg/mL | 0.635 | 0.501 | 0.475 | –
[1], first compound 0.25 µg/mL | 0.664 | – | 0.48 | –
[1], first compound 0.5 µg/mL | 0.664 | – | 0.511 | –
[2], first compound 0.375 µg/mL | 0.758 | – | – | 0.0316
[2], first compound 0.75 µg/mL | 0.807 | 0.61 | – | 0.0296
[2], first compound 1.5 µg/mL | 0.804 | 0.569 | – | 0.0385

O=C(O[C@@H]1Cc2c(O)cc(O)cc2O[C@@H]1c1cc(O)c(O)c(O)c1)c1cc(O)c(O)c(O)c1 [EGCG] + CC1(C)S[C@@H]2[C@H](NC(=O)Cc3ccccc3)C(=O)N2[C@H]1C(=O)O [Penicillin G]
fitness, [3]
Settings | first compound 12.5 µg/mL | first compound 25 µg/mL | first compound 50 µg/mL
partner 0.0195 µg/mL | 0.738 | 0.623 | –
partner 0.039 µg/mL | 0.743 | 0.739 | 0.594
partner 0.078 µg/mL | 0.741 | 0.729 | 0.644

O=C(O[C@@H]1Cc2c(O)cc(O)cc2O[C@@H]1c1cc(O)c(O)c(O)c1)c1cc(O)c(O)c(O)c1 [EGCG] + CC1=C(C(=O)O)N2C(=O)[C@@H](NC(=O)[C@H](N)c3ccccc3)[C@H]2SC1 [Cephalexin]
fitness, one replicate
Settings | first compound 6.25 µg/mL | first compound 12.5 µg/mL | first compound 25 µg/mL | first compound 50 µg/mL
[1], partner 1 µg/mL | 0.993 | 0.862 | 0.697 | –
[4], partner 0.125 µg/mL | – | 0.926 | 0.96 | ≥ 1
[4], partner 0.25 µg/mL | – | 0.902 | 0.919 | 0.937
[4], partner 0.5 µg/mL | – | 0.932 | 0.98 | 0.957

fitness
Settings | first compound 6.25 µg/mL | first compound 12.5 µg/mL | first compound 25 µg/mL | first compound 50 µg/mL
[1], partner 0.125 µg/mL | 0.875 | 0.51 | 0.222 | –
[1], partner 0.25 µg/mL | 0.988 | – | – | –
[1], partner 0.5 µg/mL | 0.919 | – | – | –
[3], partner 0.25 µg/mL | – | 0.737 | 0.682 | 0.775
[3], partner 0.5 µg/mL | – | 0.776 | 0.762 | 0.739
[3], partner 1 µg/mL | – | 0.796 | 0.806 | 0.79
[4], partner 1 µg/mL | – | 0.669 | 0.72 | –
[4], partner 2 µg/mL | – | 0.0733 | 0.2 | 0.111
[4], partner 4 µg/mL | – | 0.0244 | 0.0566 | 0.0515
